Like-named read-outs stand apart in the source and are kept apart here.
How the values were obtained:
[1] = target: T1, NAT10 (Mus musculus, UniProt Q8K224); assay: NAT10 degradation in U14 cells, Western blot; format: cell-based; settings: murine U14 cervical cells, same treatment (20 μM), 36 h
T1 construct: nearly 70% reduction in the NAT10 protein content in murine U14 cervical cells after 36 h; endogenous in cells; host or cells: U14 (murine cervical carcinoma cell line, RRID:CVCL_9U56)
T1 sequence (Q8K224 1-1024): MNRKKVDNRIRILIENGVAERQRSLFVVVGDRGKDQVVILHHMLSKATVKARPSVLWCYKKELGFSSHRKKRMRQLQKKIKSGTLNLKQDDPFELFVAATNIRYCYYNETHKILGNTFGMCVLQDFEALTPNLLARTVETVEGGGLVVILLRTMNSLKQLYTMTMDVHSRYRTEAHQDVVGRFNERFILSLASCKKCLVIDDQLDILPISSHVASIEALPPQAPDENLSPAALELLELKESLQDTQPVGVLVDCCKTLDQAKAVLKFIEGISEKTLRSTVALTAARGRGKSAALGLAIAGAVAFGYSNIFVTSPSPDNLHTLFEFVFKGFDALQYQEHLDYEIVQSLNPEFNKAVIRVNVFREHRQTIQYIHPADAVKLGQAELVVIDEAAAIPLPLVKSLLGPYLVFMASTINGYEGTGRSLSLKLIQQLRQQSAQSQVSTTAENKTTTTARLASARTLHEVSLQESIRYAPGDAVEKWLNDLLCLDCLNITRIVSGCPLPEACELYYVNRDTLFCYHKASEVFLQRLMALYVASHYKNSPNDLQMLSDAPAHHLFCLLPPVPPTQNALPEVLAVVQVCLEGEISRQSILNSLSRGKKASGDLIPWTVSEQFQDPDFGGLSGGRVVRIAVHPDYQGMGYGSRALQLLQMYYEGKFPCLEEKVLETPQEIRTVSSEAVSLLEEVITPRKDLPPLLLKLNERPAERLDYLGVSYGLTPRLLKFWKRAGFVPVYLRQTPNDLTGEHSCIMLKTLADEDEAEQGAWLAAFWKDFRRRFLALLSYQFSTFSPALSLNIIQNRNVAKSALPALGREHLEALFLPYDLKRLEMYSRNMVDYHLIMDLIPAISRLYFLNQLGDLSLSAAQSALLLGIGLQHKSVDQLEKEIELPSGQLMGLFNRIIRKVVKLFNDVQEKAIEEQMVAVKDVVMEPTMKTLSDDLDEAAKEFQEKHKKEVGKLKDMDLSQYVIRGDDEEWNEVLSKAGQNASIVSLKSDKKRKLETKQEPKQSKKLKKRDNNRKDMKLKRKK
Method: The human CCa cell line SiHa and the normal epithelial foreskin fibroblast line HFF-1 were purchased from the Cell Bank of the Chinese Academy of Sciences. Additionally, murine cervical carcinoma cell line U14 (RRID:CVCL_9U56) was purchased from Boster Company. HFF-1 and U14 cells were cultured in Dulbecco’s modified Eagle’s medium (DMEM) (Gibco, USA) supplemented with 10% heat-inactivated fetal bovine serum (FBS; Gibco, USA), while SiHa cells were incubated in RPMI 1640 medium (Gibco, USA) in a humid atmosphere with 5% CO2 at 37 °C. For hypoxia exposure, the cells were incubated in a sealed culture tank containing 5% CO2 and 0.1% O2 (MGC, Japan) for 36 h.
RIPA lysis buffer (Beyotime, China) mixed with 1% protease inhibitor (Sigma, US) was added to the cells, and a sample of total protein was obtained and then loaded onto an 8% or 12% polyacrylamide gel. The gel was placed in a buffer solution, and an electric current was applied. The separated proteins were subsequently transferred from the gel onto a PVDF membrane. Next, the membrane was blocked with 5% milk for 1 h to prevent nonspecific antibody binding. […] The target proteins were detected via chemiluminescence with a ChemiDoc MP Imaging System (Bio-Rad, US).

[2] = tested on: high-grade serous ovarian carcinoma (OV) patient-derived organoids; assay: ATP-based viability assay in patient-derived organoids, OV; format: cell-based; settings: Homo sapiens, OV PDOs, read-out: IC50, organoid viability
Method: (§1) Organoid culture was performed according to previously established protocols. Briefly, we procured patient-derived tissue samples provided and technically manipulated by Accurate International Biotechnology Co., Ltd. Subsequently, these samples were subjected to mechanical and enzymatic dissociation to disaggregate the tissue into single cells or small clusters, while preserving cellular integrity. Following this initial step, the isolated cells or tissue fragments were embedded within a 3D ECM scaffold, such as Matrigel or collagen. The ECM scaffold served as a supportive substrate, promoting cellular self-organization and mimicking native tissue architecture. Additionally, a precisely formulated cocktail of growth factors, cytokines, and signaling molecules tailored to the specific tissue of interest was meticulously formulated and added to the culture medium to facilitate organoid growth and maintenance.

[3] = tested on: cervical squamous cell carcinoma and endocervical adenocarcinoma (CESC) patient-derived organoids; assay: ATP-based viability assay in patient-derived organoids, CESC; format: cell-based; settings: Homo sapiens, CESC PDOs, read-out: IC50, organoid viability
Method: as §1

[4] = Pharmacokinetic study in male SD rats; format: in vivo; settings: Sprague-Dawley (SD), rat, plasma; for AUC(0-t): 0–24 h; for MRT last: read-out: MRT(0−t); for MRT inf: read-out: MRT(0−∞)
Method: Male SD rats (180–220 g) were purchased from Beijing Vital River Laboratory Animal Technology Co., Ltd. Blood samples (0.25 mL) were collected from the tail vein at 0.0833, 0.25, 0.5, 1, 2, 4, 6, 8, and 24 h after oral (10 mg/kg) or intravenous (2 mg/kg) administration of compound NP1192. Drug concentrations in the samples were determined by using liquid chromatography–mass spectrometry (LC-MS/MS). The mobile phase consisted of a mixture of solvent A (acetonitrile) and solvent B (formic acid/ultrapure water, 1:1000, v/v). The flow rate of the mobile phase was 0.3 mL/min, and the injection volume was 10 μL.

[5] = tested on: HFF-1 cells; assay: Cytotoxicity in nonmalignant HFF-1 cells; format: cell-based, human; settings: HFF-1 cells with low NAT10 expression
[6] = tested on: CD8+ T cells cocultured with U14 cells; settings: Figure 7B, coculture with U14 cells, 36 h
Method: Fresh CD8^+ T cells were extracted according to the instructions of the kit. The day before the CD8^+ T cells were extracted, the antimouse CD3 antibody was diluted to 5 μg/mL with sterile PBS, and the diluted antibody was added to a 24-well plate and incubated overnight at 4 °C. (Before the antibody was added to the plate, the plate was rinsed with sterile PBS 2–3 times to avoid dry wells). The plate incubated the previous day was removed from the 4 °C refrigerator on the second day, and the coating solution was discarded, followed by washing with sterile PBS 3 times. Amplification culture medium consisting of DMEM + 10% serum + 5 μg/mL antimouse CD28 + IL-2 was prepared. The cell lines used for culture were maintained in the logarithmic growth phase (70–80% confluence). Cell counting was performed, and CCa cells were seeded in a 12-well plate (10^5 cells/well) and cultured until adherence. T cells were mixed with tumor cells at different effector-to-target ratios (1:10) and then incubated with different drugs for 24 h. Flow cytometry experiments were then performed to detect the CD8^+ T-cell subtypes.

SMILES: N#Cc1ccc(-c2csc(N(CCCCCCC(=O)N3CCN(c4cccc5c4C(=O)N(C4CCC(=O)NC4=O)C5=O)CC3)N=C3CCCC3)n2)cc1 (stereo not shown) [NP1192]
- reduction in NAT10 protein content [1]: ~70%
- IC50 [2]: 9.95 µM
- IC50 [3]: 3.05 µM
- Cmax ([4]; iv, i.v. 2 mg/kg): 759 ± 134 ng/mL
- AUC(0-t) ([4]; iv, i.v. 2 mg/kg): 365 ± 42.6 ng·h/mL
- AUC(0-inf) ([4]; iv, i.v. 2 mg/kg): 367 ± 43 ng·h/mL
- Tmax ([4]; iv, i.v. 2 mg/kg): 0.0833 h
- clearance ([4]; iv, i.v. 2 mg/kg): 91.7 mL/min/kg
- half-life ([4]; iv, i.v. 2 mg/kg): 0.967 ± 0.214 h
- MRT last ([4]; iv, i.v. 2 mg/kg): 0.529 ± 0.0268 h
- MRT inf ([4]; iv, i.v. 2 mg/kg): 0.57 ± 0.0206 h
- Vd ([4]; iv, i.v. 2 mg/kg, read-out: Vz): 7.6 ± 1.39 L/kg
- bioavailability ([4]; oral, p.o. 10 mg/kg vs i.v. 2 mg/kg, read-out: oral bioavailability (F)): 1.35%
- AUC(0-inf) ([4]; po, p.o. 10 mg/kg): 29.5 ± 1.59 ng·h/mL
- Tmax ([4]; po, p.o. 10 mg/kg): 1.67 h
- half-life ([4]; po, p.o. 10 mg/kg): 2.4 ± 1.15 h
- MRT last ([4]; po, p.o. 10 mg/kg): 1.56 ± 0.358 h
- MRT inf ([4]; po, p.o. 10 mg/kg): 2.85 ± 0.862 h
- Cmax ([4]; po, p.o. 10 mg/kg): 13.9 ± 6.42 ng/mL
- AUC(0-t) ([4]; po, p.o. 10 mg/kg): 24.7 ± 1.11 ng·h/mL
- cytotoxicity in nonmalignant cells [5]: minimal cytotoxicity
- Teff cells, IFN-γ gate (lower row) [6]: 7.75%

From PMC12670317, “Targeted NAT10 Degradation by PROTAC NP1192 Suppresses Hypoxia-Adaptive Glycolysis and Reinvigorates CD8^+ Effector T‑Cell Function for Synergistic Cancer Immunotherapy” (ACS Central Science, 2025)
